From patent US20150105252A1, “SUBSTITUTED PYRAZOLES AS HERBICIDES” (E I DU PONT DE NEMOURS AND COMPANY, priority 2013, published 2015)

How the values were obtained:
barnyardgrass = experiment: Test B flood; format: in vivo, Echinochloa crus-galli; details: 250 g ai/ha, visual rating on 0 to 100 scale (0 no effect, 100 complete control), 13 to 15 days
Procedure, shortened: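 Two-leaf-stage plants, pots flooded (3 cm above soil) and treated through the water, which stayed at that depth. After 13–15 days in greenhouse conditions, visual assessment versus controls: 0 is no effect, 100 complete control, dash means no result.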

pigweed [1] = experiment: Test C preemergence; format: in vivo, Amaranthus retroflexus; details: preemergence; for Plant response rating, Pigweed: 125 g ai/ha, scale 0 to 100, 0 = no effect, 100 = complete control
Procedure, shortened: (§1)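 Visual rating, 0–100 scale (0 no effect, 100 complete control), vs untreated controls after 13–15 d greenhouse. Pre: seeds in loam/sand, treated at sowing. Post: plants in peat-based mix, 1- to 4-leaf (2–18 cm). Solvent + surfactant formulation, non-phytotoxic.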

oilseed rape = experiment: Test C postemergence; format: in vivo, Brassica napus; details: postemergence; for Oilseed Rape plant response rating: 62 g ai/ha, scale 0 to 100
Procedure, shortened: as §1

wheat = experiment: Test A preemergence; format: in vivo, Triticum aestivum; details: preemergence; for Wheat plant response rating (0 to 100 scale): 125 g ai/ha, visual injury approx. 10 days after treatment; for Wheat plant response rating: 500 g ai/ha, visual injury after approx. 10 days, 0 to 100 scale (0 no effect, 100 complete control)
Procedure, shortened: (§2)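 Growth medium: loam soil blended with sand. Preemergence treatment used a directed soil spray right after planting; postemergence treatment targeted seedlings at one to two leaves (2–10 cm height). Response was judged by eye relative to untreated plants about 10 days later on a 0–100 control scale.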

blackgrass [2] = experiment: Test C preemergence; format: in vivo, Alopecurus myosuroides; details: preemergence; for Plant response rating, Blackgrass: 125 g ai/ha, scale 0 to 100, 0 = no effect, 100 = complete control
Procedure, shortened: as §1

blackgrass [3] = experiment: Test C postemergence; format: in vivo, Alopecurus myosuroides; details: for Plant response rating (scale of 0 to 100 where 0 is no effect and 100 is complete control), Blackgrass: Postemergence, 31 g ai/ha, visually evaluated after 13 to 15 days; for Blackgrass plant response rating / Plant response rating, Blackgrass: postemergence; for Blackgrass plant response rating: 62 g ai/ha, scale 0 to 100
Procedure, shortened: as §1

velvetleaf = experiment: Test A preemergence; format: in vivo, Abutilon theophrasti; details: preemergence; for Velvetleaf plant response rating (0 to 100 scale): 125 g ai/ha, visual injury approx. 10 days after treatment; for Velvetleaf plant response rating: 500 g ai/ha, visual injury after approx. 10 days, 0 to 100 scale (0 no effect, 100 complete control)
Procedure, shortened: as §2

johnsongrass [4] = experiment: Test C postemergence; format: in vivo, Sorghum halepense; details: for Plant response rating (scale of 0 to 100 where 0 is no effect and 100 is complete control), Johnsongrass: Postemergence, 31 g ai/ha, visually evaluated after 13 to 15 days; for Johnsongrass plant response rating / Plant response rating, Johnsongrass: postemergence; for Johnsongrass plant response rating: 62 g ai/ha, scale 0 to 100
Procedure, shortened: as §1

foxtail, giant = experiment: Test A preemergence; format: in vivo, Setaria faberii; details: preemergence; for Foxtail, Giant plant response rating (0 to 100 scale): 125 g ai/ha, visual injury approx. 10 days after treatment; for Foxtail, Giant plant response rating: 500 g ai/ha, visual injury after approx. 10 days, 0 to 100 scale (0 no effect, 100 complete control)
Procedure, shortened: as §2

crabgrass, large = experiment: Test C postemergence; format: in vivo, Digitaria sanguinalis; details: for Plant response rating (scale of 0 to 100 where 0 is no effect and 100 is complete control), Crabgrass, Large: Postemergence, 31 g ai/ha, visually evaluated after 13 to 15 days; for Crabgrass, Large plant response rating / Plant response rating, Crabgrass, Large: postemergence; for Crabgrass, Large plant response rating: 62 g ai/ha, scale 0 to 100
Procedure, shortened: as §1

pigweed [5] = experiment: Test A preemergence; format: in vivo, Amaranthus retroflexus; details: preemergence; for Pigweed plant response rating (0 to 100 scale): 125 g ai/ha, visual injury approx. 10 days after treatment; for Pigweed plant response rating: 500 g ai/ha, visual injury after approx. 10 days, 0 to 100 scale (0 no effect, 100 complete control)
Procedure, shortened: as §2

johnsongrass [6] = experiment: Test C preemergence; format: in vivo, Sorghum halepense; details: preemergence; for Plant response rating, Johnsongrass: 125 g ai/ha, scale 0 to 100, 0 = no effect, 100 = complete control
Procedure, shortened: as §1

lambsquarters = experiment: Test C preemergence; format: in vivo, Chenopodium album; details: preemergence; for Plant response rating, Lambsquarters: 125 g ai/ha, scale 0 to 100, 0 = no effect, 100 = complete control
Procedure, shortened: as §1

waterhemp = experiment: Test C postemergence; format: in vivo, Amaranthus rudis; details: postemergence; for Plant response rating, Waterhemp: 250 g ai/ha, scale 0 to 100 (0 no effect, 100 complete control); for Waterhemp plant response rating: scale 0 to 100
Procedure, shortened: as §1

[7] = 31 g ai/ha, visual rating, scale 0 to 100 (0 no effect, 100 complete control), 13 to 15 days
[8] = 62 g ai/ha, scale 0 to 100 (0 no effect, 100 complete control), 13 to 15 days
[9] = 250 g ai/ha, scale 0 to 100, 0 is no effect, 100 is complete control
[10] = 250 g ai/ha, scale 0 to 100 (0 no effect, 100 complete control)
[11] = 125 g ai/ha, scale 0 to 100, 0 no effect, 100 complete control

CCCc1cc(C(=O)NC(C)C)nn1Cc1ccnc(C(F)(F)F)c1 [Compound 186]
Plant response rating, Barnyardgrass (barnyardgrass): 75 | Pigweed plant response rating (pigweed [1]; [7]): 100 | Pigweed plant response rating (pigweed [1]; [8]): 100 | Plant response rating, Pigweed (pigweed [1]; 13 to 15 days): 100 | Pigweed plant response rating (pigweed [1]; [9]): 100 | Oilseed Rape plant response rating (oilseed rape): 60 | Plant response rating, Oilseed Rape (oilseed rape; [10]): 85 | Plant response rating, Oilseed Rape (oilseed rape; [11]): 80 | Wheat plant response rating (0 to 100 scale) (wheat): 90 | Wheat plant response rating (wheat): 100 | Blackgrass plant response rating (blackgrass [2]; [7]): 85 | Blackgrass plant response rating (blackgrass [2]; [8]): 90 | Plant response rating, Blackgrass (blackgrass [2]; 13 to 15 days): 90 | Blackgrass plant response rating (blackgrass [2]; [9]): 90 | Plant response rating (scale of 0 to 100 where 0 is no effect and 100 is complete control), Blackgrass (blackgrass [3]): 5 | Blackgrass plant response rating (blackgrass [3]): 10 | Plant response rating, Blackgrass (blackgrass [3]; [10]): 60 | Plant response rating, Blackgrass (blackgrass [3]; [11]): 10 | Velvetleaf plant response rating (0 to 100 scale) (velvetleaf): 100 | Velvetleaf plant response rating (velvetleaf): 100 | Plant response rating (scale of 0 to 100 where 0 is no effect and 100 is complete control), Johnsongrass (johnsongrass [4]): 5 | Johnsongrass plant response rating (johnsongrass [4]): 5 | Plant response rating, Johnsongrass (johnsongrass [4]; [10]): 95 | Plant response rating, Johnsongrass (johnsongrass [4]; [11]): 5 | Foxtail, Giant plant response rating (0 to 100 scale) (foxtail, giant): 100 | Foxtail, Giant plant response rating (foxtail, giant): 100 | Plant response rating (scale of 0 to 100 where 0 is no effect and 100 is complete control), Crabgrass, Large (crabgrass, large): 5 | Crabgrass, Large plant response rating (crabgrass, large): 5 | Plant response rating, Crabgrass, Large (crabgrass, large; [10]): 80 | Plant response rating, Crabgrass, Large (crabgrass, large; [11]): 20 | Pigweed plant response rating (0 to 100 scale) (pigweed [5]): 0 | Pigweed plant response rating (pigweed [5]): 0 | Johnsongrass plant response rating (johnsongrass [6]; [7]): 75 | Johnsongrass plant response rating (johnsongrass [6]; [8]): 98 | Plant response rating, Johnsongrass (johnsongrass [6]; 13 to 15 days): 100 | Johnsongrass plant response rating (johnsongrass [6]; [9]): 100 | Lambsquarters plant response rating (lambsquarters; [7]): 100 | Lambsquarters plant response rating (lambsquarters; [8]): 100 | Plant response rating, Lambsquarters (lambsquarters; 13 to 15 days): 100 | Lambsquarters plant response rating (lambsquarters; [9]): 100 | Plant response rating, Waterhemp (waterhemp): 90 | Waterhemp plant response rating (waterhemp): 60

CCCNC(=O)c1cc(OCC)n(Cc2ccnc(C(F)(F)F)c2)n1 [Compound 187]
Plant response rating, Barnyardgrass (barnyardgrass): 55 | Pigweed plant response rating (pigweed [1]; [7]): 70 | Pigweed plant response rating (pigweed [1]; [8]): 100 | Plant response rating, Pigweed (pigweed [1]; 13 to 15 days): 100 | Pigweed plant response rating (pigweed [1]; [9]): 100 | Oilseed Rape plant response rating (oilseed rape): 50 | Plant response rating, Oilseed Rape (oilseed rape; [10]): 80 | Plant response rating, Oilseed Rape (oilseed rape; [11]): 75 | Wheat plant response rating (0 to 100 scale) (wheat): 80 | Wheat plant response rating (wheat): 100 | Blackgrass plant response rating (blackgrass [2]; [7]): 90 | Blackgrass plant response rating (blackgrass [2]; [8]): 90 | Plant response rating, Blackgrass (blackgrass [2]; 13 to 15 days): 90 | Blackgrass plant response rating (blackgrass [2]; [9]): 95 | Plant response rating (scale of 0 to 100 where 0 is no effect and 100 is complete control), Blackgrass (blackgrass [3]): 10 | Blackgrass plant response rating (blackgrass [3]): 5 | Plant response rating, Blackgrass (blackgrass [3]; [10]): 80 | Plant response rating, Blackgrass (blackgrass [3]; [11]): 30 | Velvetleaf plant response rating (0 to 100 scale) (velvetleaf): 100 | Velvetleaf plant response rating (velvetleaf): 100 | Plant response rating (scale of 0 to 100 where 0 is no effect and 100 is complete control), Johnsongrass (johnsongrass [4]): 0 | Johnsongrass plant response rating (johnsongrass [4]): 5 | Plant response rating, Johnsongrass (johnsongrass [4]; [10]): 25 | Plant response rating, Johnsongrass (johnsongrass [4]; [11]): 5 | Foxtail, Giant plant response rating (0 to 100 scale) (foxtail, giant): 100 | Foxtail, Giant plant response rating (foxtail, giant): 100 | Plant response rating (scale of 0 to 100 where 0 is no effect and 100 is complete control), Crabgrass, Large (crabgrass, large): 10 | Crabgrass, Large plant response rating (crabgrass, large): 20 | Plant response rating, Crabgrass, Large (crabgrass, large; [10]): 95 | Plant response rating, Crabgrass, Large (crabgrass, large; [11]): 60 | Pigweed plant response rating (0 to 100 scale) (pigweed [5]): 0 | Pigweed plant response rating (pigweed [5]): 0 | Johnsongrass plant response rating (johnsongrass [6]; [7]): 75 | Johnsongrass plant response rating (johnsongrass [6]; [8]): 98 | Plant response rating, Johnsongrass (johnsongrass [6]; 13 to 15 days): 100 | Johnsongrass plant response rating (johnsongrass [6]; [9]): 100 | Lambsquarters plant response rating (lambsquarters; [7]): 100 | Lambsquarters plant response rating (lambsquarters; [8]): 100 | Plant response rating, Lambsquarters (lambsquarters; 13 to 15 days): 100 | Lambsquarters plant response rating (lambsquarters; [9]): 100 | Plant response rating, Waterhemp (waterhemp): 95 | Waterhemp plant response rating (waterhemp): 70
